Assay results as given in patent US20100311749A1, “4-BENZOYL-1-SUBSTITUTED-PIPERAZIN-2-ONE DERIVATIVES AS P2X7 MODULATORS” (priority 2007, published 2010).
Counter-ions that a name gives are not always drawn.

biological target: T1, human P2X7 receptor (Homo sapiens, UniProt Q99572); experiment: Ethidium Accumulation Assay; type: cell-based; details: HEK293 cells stably expressing human recombinant P2X7 receptors; 1 mM ATP; values given as 'about'; read-out: pIC50 for human P2X7 receptor antagonist activity (blocking ATP responses) in the Ethidium Accumulation Assay (converted)
T1 construct: expressed in transfected cells
T1 sequence (Q99572 1-595): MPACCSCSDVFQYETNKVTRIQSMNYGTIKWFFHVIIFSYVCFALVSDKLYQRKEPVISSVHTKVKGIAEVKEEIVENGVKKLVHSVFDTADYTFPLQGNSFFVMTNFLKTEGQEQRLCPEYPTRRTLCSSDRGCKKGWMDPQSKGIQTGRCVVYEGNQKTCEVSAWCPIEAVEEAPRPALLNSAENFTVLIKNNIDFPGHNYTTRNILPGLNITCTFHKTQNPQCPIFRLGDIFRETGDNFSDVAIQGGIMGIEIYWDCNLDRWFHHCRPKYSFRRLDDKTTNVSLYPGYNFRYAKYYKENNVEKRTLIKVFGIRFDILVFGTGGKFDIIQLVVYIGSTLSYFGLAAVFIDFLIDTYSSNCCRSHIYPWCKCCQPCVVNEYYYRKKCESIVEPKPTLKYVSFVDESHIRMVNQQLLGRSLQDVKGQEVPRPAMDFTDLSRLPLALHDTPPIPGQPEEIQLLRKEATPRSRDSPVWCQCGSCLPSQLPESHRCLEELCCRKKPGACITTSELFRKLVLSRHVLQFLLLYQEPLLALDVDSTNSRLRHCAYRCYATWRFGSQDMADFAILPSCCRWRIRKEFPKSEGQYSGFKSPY
Description: Studies were performed using NaCl assay buffer of the following composition: 140 mM NaCl, 10 mM HEPES [4-(2-hydroxyethyl)-1-piperazine-1-ethanesulfonic acid], 5 mM N-methyl-D-glucamine, 5.6 mM KCl, 10 mM D-glucose, 0.5 mM CaCl2 (pH 7.4).
Human Embryonic Kidney (HEK) 293 cells, stably expressing human recombinant P2X7 receptors, were grown in poly-D-lysine pre-treated 96 well plates for 18-24 hours. […] The cells were washed twice with 350 μl of the assay buffer, before addition of 50 μl of the assay buffer containing the putative P2X7 receptor antagonist compound. (A small amount of dimethyl sulfoxide, for initially dissolving the compound, is optionally used and present in this 50 μl test compound sample.) The cells were then incubated at room temperature (19-21° C.) for 30 min before addition of ATP and ethidium (100 μM final assay concentration). The ATP concentration was chosen to be close to the EC80 for the receptor type and was 1 mM for studies on the human P2X7 receptor. Incubations were continued for 8 or 16 min and were terminated by addition of 25 μl of 1.3M sucrose containing 4 mM of the P2X7 receptor antagonist Reactive Black 5 (Aldrich). […] Antagonist pIC50 values for blocking ATP responses were determined using iterative curve fitting techniques.

| Compound | IC50 |
| --- | --- |
| CC(C)Oc1cc(F)ccc1N1CCN(C(=O)c2cccc(C(F)(F)F)c2Cl)CC1=O [Example 57, 4-{[2-chloro-3-(trifluoromethyl)phenyl]carbonyl}-1-{4-fluoro-2-[(1-methylethyl)oxy]phenyl}-2-piperazinone] | 2.51 to 100 nM |
| CC(C)c1ccccc1N1CCN(C(=O)c2cccc(C(F)(F)F)c2Cl)CC1=O [Example 25, 4-{[2-chloro-3-(trifluoromethyl)phenyl]carbonyl}-1-[2-(1-methylethyl)phenyl]-2-piperazinone] | 2.51 to 100 nM |
| Cc1c(N2CCOCC2)cccc1N1CCN(C(=O)c2cccc(Cl)c2Cl)CC1=O [Example 80, 4-[(2,3-dichlorophenyl)carbonyl]-1-[2-methyl-3-(4-morpholinyl)phenyl]-2-piperazinone] | 2.51 to 100 nM |
| O=C(c1cccc(C(F)(F)F)c1F)N1CCN(c2ccc(F)cc2Cl)C(=O)C1 [Example 56, 1-(2-chloro-4-fluorophenyl)-4-{[2-fluoro-3-(trifluoromethyl)phenyl]carbonyl}-2-piperazinone] | 2.51 to 100 nM |
| Cc1ccccc1N1CCN(C(=O)c2cccc(Cl)c2Cl)CC1=O [Example 4, 4-[(2,3-Dichlorophenyl)carbonyl]-1-(2-methylphenyl)-2-piperazinone] | 5.01 to 200 nM |
| O=C(c1c(Cl)cc(Cl)cc1Cl)N1CCN(c2cc(N3CCOCC3)ccc2Cl)C(=O)C1 [Example 77, 1-[2-chloro-5-(4-morpholinyl)phenyl]-4-[(2,4,6-trichlorophenyl)carbonyl]-2-piperazinone] | 2.51 to 100 nM |
| Cc1ccccc1N1CCN(C(=O)c2ccc(Cl)cc2Cl)CC1=O [Example 2, 4-[(2,4-Dichlorophenyl)carbonyl]-1-(2-methylphenyl)-2-piperazinone] | 5.01 to 200 nM |
| O=C(c1cccc(Cl)c1Cl)N1CCN(c2ccc(F)cc2)C(=O)C1 [Example 13, 4-[(2,3-Dichlorophenyl)carbonyl]-1-(4-fluorophenyl)-2-piperazinone] | 5.01 to 200 nM |
| O=C(c1cccc(Cl)c1Cl)N1CCN(c2ccc(Cl)cc2)C(=O)C1 [Example 7, 1-(4-Chlorophenyl)-4-[(2,3-dichlorophenyl)carbonyl]-2-piperazinone] | 5.01 to 200 nM |
| O=C(c1ccc(F)c(F)c1Cl)N1CCN(c2ccc(F)cc2Cl)C(=O)C1 [Example 32, 4-[(2-chloro-3,4-difluorophenyl)carbonyl]-1-(2-chloro-4-fluorophenyl)-2-piperazinone] | 2.51 to 100 nM |
| COc1ccc(I)cc1N1CCN(C(=O)c2cccc(C(F)(F)F)c2Cl)CC1=O [Example 64, 4-{[2-chloro-3-(trifluoromethyl)phenyl]carbonyl}-1-[5-iodo-2-(methyloxy)phenyl]-2-piperazinone] | 2.51 to 100 nM |
| O=C(c1cccc(Cl)c1Cl)N1CCN(c2cccc(Cl)c2)C(=O)C1 [Example 14, 1-(3-Chlorophenyl)-4-[(2,3-dichlorophenyl)carbonyl]-2-piperazinone] | 5.01 to 200 nM |
| O=C(c1cccc(C(F)(F)F)c1Cl)N1CCN(c2ccc(F)cc2)C(=O)C1 [Example 12, 4-{[2-Chloro-3-(trifluoromethyl)phenyl]carbonyl}-1-(4-fluorophenyl)-2-piperazinone] | 5.01 to 200 nM |
| CCCN1CCN(C(=O)c2cccc(C(F)(F)F)c2Cl)CC1=O [Example 49, 4-{[2-chloro-3-(trifluoromethyl)phenyl]carbonyl}-1-propyl-2-piperazinone] | 2.51 to 100 nM |
| Cc1cc(F)c(Br)cc1N1CCN(C(=O)c2cccc(C(F)(F)F)c2Cl)CC1=O [Example 45, 1-(5-bromo-4-fluoro-2-methylphenyl)-4-{[2-chloro-3-(trifluoromethyl)phenyl]carbonyl}-2-piperazinone] | 2.51 to 100 nM |
| O=C(c1cccc(C(F)(F)F)c1Cl)N1CCN(c2cccc3ccccc23)C(=O)C1 [Example 24, 4-{[2-chloro-3-(trifluoromethyl)phenyl]carbonyl}-1-(1-naphthalenyl)-2-piperazinone] | 2.51 to 100 nM |

Next, values leading:

| IC50 | Compound |
| --- | --- |
| 2.51 to 100 nM | O=C1CN(C(=O)c2cccc(C(F)(F)F)c2Cl)CCN1CC1CC1 [Example 48, 4-{[2-chloro-3-(trifluoromethyl)phenyl]carbonyl}-1-(cyclopropylmethyl)-2-piperazinone] |
| 2.51 to 100 nM | Cc1ccc(Br)cc1N1CCN(C(=O)c2cccc(C(F)(F)F)c2Cl)CC1=O [Example 53, 1-(5-bromo-2-methylphenyl)-4-{[2-chloro-3-(trifluoromethyl)phenyl]carbonyl}-2-piperazinone] |
| 5.01 to 200 nM | O=C(c1cccc(C(F)(F)F)c1Cl)N1CCN(c2ccc(F)cc2Cl)C(=O)C1 [Example 10, 1-(2-Chloro-4-fluorophenyl)-4-{[2-chloro-3-(trifluoromethyl)phenyl]carbonyl}-2-piperazinone] |
| 2.51 to 100 nM | CCC(CC)N1CCN(C(=O)c2cccc(C(F)(F)F)c2Cl)CC1=O [Example 47, 4-{[2-chloro-3-(trifluoromethyl)phenyl]carbonyl}-1-(1-ethylpropyl)-2-piperazinone] |
| 2.51 to 100 nM | N#Cc1cc(F)ccc1N1CCN(C(=O)c2cccc(Cl)c2Cl)CC1=O [Example 38, 2-{-4-[(2,3-dichlorophenyl)carbonyl]-2-oxo-1-piperazinyl}-5-fluorobenzonitrile] |
| 5.01 to 200 nM | CN1CCN(C(=O)c2cccc(Cl)c2Cl)CC1=O [Example 16, 4-[(2,3-Dichlorophenyl)carbonyl]-1-methyl-2-piperazinone] |
| 2.51 to 100 nM | Cc1ccc(N2CCOCC2)cc1N1CCN(C(=O)c2cccc(Cl)c2Cl)CC1=O [Example 54, 4-[(2,3-dichlorophenyl)carbonyl]-1-[2-methyl-5-(4-morpholinyl)phenyl]-2-piperazinone] |
| 2.51 to 100 nM | O=C(c1ccc(F)cc1Cl)N1CCN(c2cccc3ccccc23)C(=O)C1 [Example 23, 4-[(2-chloro-4-fluorophenyl)carbonyl]-1-(1-naphthalenyl)-2-piperazinone] |
| 5.01 to 200 nM | CCN1CCN(C(=O)c2cccc(Cl)c2Cl)CC1=O [Example 17, 4-[(2,3-Dichlorophenyl)carbonyl]-1-ethyl-2-piperazinone] |
| 2.51 to 100 nM | O=C1CN(C(=O)c2cccc(C(F)(F)F)c2Cl)CCN1CC1CCCCC1 [Example 66, 4-{[2-chloro-3-(trifluoromethyl)phenyl]carbonyl}-1-(cyclohexylmethyl)-2-piperazinone] |
| 2.51 to 100 nM | Cc1ccc(-c2ccc(C)c(N3CCN(C(=O)c4cccc(C(F)(F)F)c4Cl)CC3=O)c2)cn1 [Example 74, 4-{[2-chloro-3-(trifluoromethyl)phenyl]carbonyl}-1-[2-methyl-5-(6-methyl-3-pyridinyl)phenyl]-2-piperazinone hydrochloride] |
| 2.51 to 100 nM | CC(C)c1ccccc1N1CCN(C(=O)c2ccc(F)cc2Cl)CC1=O [Example 26, 4-[(2-chloro-4-fluorophenyl)carbonyl]-1-[2-(1-methylethyl)phenyl]-2-piperazinone] |
| 5.01 to 200 nM | CC(C)N1CCN(C(=O)c2cccc(Cl)c2Cl)CC1=O [Example 18, 4-[(2,3-Dichlorophenyl)carbonyl]-1-(1-methylethyl)-2-piperazinone] |
